The values below come from patent US12421500B2, “Hepato-biliary-pancreatic tissues and methods of making same” (CHILDREN'S HOSPITAL MEDICAL CENTER, priority 2018, dated 2025).

The subject of test [1] is E9.0 PROX1::GFP reporter mouse embryo. In words: E9.0 PROX1::GFP reporter mouse whole embryo culture with BMS493. The following applies: after 2 days, vs DMSO control, FIGS. 11A and 11B. The source says: FIGS. 11A and 11B. PROX1 inhibition by BMS493 exposure with E9.0 PROX1::GFP reporter mouse embryo explant culture. […] Retinoic acid receptors antagonist BMS493 treated group was compared with control (adding DMSO) group. 11A. Bright field image and GFP fluorescent image for embryo after culture. 11B. The area of GFP expressing parts was quantified from GFP image in (a). Scale bar: 1 mm
(§1) In support, Applicant exposed the bAP organoids at D9 to various RA signaling agonists or antagonists. […] Lateral plate mesoderm population acts as an activator for RA signaling during the specification in vivo^22-24. To implicate the cellular source for RA in the model system, RA signaling related genes were assessed in the isolated epithelial and non-epithelial cell populations. […] Complementing this, exposing only the posterior gut spheroid, and not the anterior gut spheroid to BMS493 prior to fusion suppressed the protein-level induction of HHEX and PDX1 (FIG. 10). […] Taken together, HBP progenitor self-specification derived from posterior region in boundary organoid model system is regulated by RA signals, and may be supported by co-differentiating anterior non-epithelial, most likely mesenchymal, lineages.
The Rotator-type Bottle Culture System (Ikemoto Scientific Technology Co., Ltd) was used for whole embryo culture. […]

A further test has as its system bAP organoids. In words: bAP organoids exposed to RA signaling agonists or antagonists, gene expression by qPCR. It counts as cell-based, human. As to conditions: bAP organoids exposed at D9; Day 11, three days culture; FIG. 2G. Here is the method:
FIG. 2A-2I. Self-emergence of hepato-biliary-pancreatic progenitors from boundary organoid without inductive factors. 2A. Generating PROX1-tdTomato reporter line by CRISPR-Cas9 gene editing system. 2B. PROX1-tdTomato expression in established PROX1 reporter iPSCs from Day 9 to Day 11. 2C. PROX1-tdTomato positive area in each organoid. AP, AA and PP combinations were evaluated. The tdTomato expression was confirmed in the cell membrane of boundary organoids in AP combination. 2D. Hepatic invagination in mouse liver primordium explant (Prox1::GFP) and human iPSC-derived boundary organoids (PROX1::m-tdTomato). 2E. The immunostaining of PROX1 in E8.75 mice embryo and boundary organoids at Day 13. 2F. Transcriptomic characterization of boundary organoids. Anterior, boundary, and posterior domains were dissected, separated, and applied for RNA sequencing. […] Heatmap was separated into 8 detailed groups (C1-C8) by unbiased hierarchical clustering. […] 2G. Gene expression of HHEX, PDX1, SOX2, and CDX2 at Day 11 with three days culture of retinoic acid, BMS493, R-75251, or WIN18446. 2H. […]
In support, Applicant exposed the bAP organoids at D9 to various RA signaling agonists or antagonists. […] To implicate the cellular source for RA in the model system, RA signaling related genes were assessed in the isolated epithelial and non-epithelial cell populations. […]

Another test deals with posterior gut spheroid. Description: BMS493 pretreatment of anterior or posterior gut spheroids before fusion, HHEX and PDX1 immunostaining. It counts as cell-based, human. The following applies: only posterior gut spheroid exposed prior to fusion; vs untreated control; FIG. 10.
Text: FIG. 10. Abolishment of HHEX and PDX1 induction in posterior gut specific BMS493. BMS493 pretreated anterior or posterior gut spheroids were fused to induce HBP anlage formation. […] Scale bar: 200 μm
as §1
For whole mount immunohistochemical staining, spheroid and organoid were collected from Matrigel™ and removed remaining Matrigel™ by treating with Cell recovery solution at 4° C. for 30 min. The tissues were washed by PBS and were fixed in 4% PFA at 4° C. for overnight. […]

The subject of test [2] is Cholecystokinin A Receptor (CCKAR) expressing organoids. Description: CCK exposure of organoids: ductal response and amylase ELISA. It counts as cell-based, human. The source says: FIG. 3A-3O. Modeling human hepato-biliary-pancreatic organogenesis. 3A. Illustration of dissection of PROX1 positive region from HBP organoids and image of before/after dissection. 3B. Optimization of cultured system with 1) Floating, 2) Embedded into Matrigel™, 3) Embedded into Matrigel™ and cultured with Transwell™ from D13, 4). Dissected, embedded into Matrigel™, and cultured with Transwell™ from D13. […] 3C. Morphogenesis of boundary organoids through 2 days from Day 13. 3D. Morphogenetical change of PROX1 dissected tissue from boundary organoids through 30 days of air-liquid interface cultured system. 3E. Stereomicroscopic image of Day 37 organoids. 3F. Boundary organoid has tdTomato expressing hepatobiliary tissues branched out for putative pancreatic domains, similar to cultured mouse E10.5 derived hepato-biliary-pancreas. […]
To determine whether longer-term culture can produce more mature tissue, organoids were cultured until D90. […] Furthermore, the immunofluorescent staining detected the expression of the pancreas marker PDX1 and NGN3, the liver marker PROX1, and the bile duct markers CK19 and SOX9 in the organoids (FIG. 3H). […] Given the Cholecystokinin A Receptor (CCKAR) expression in the organoids (FIG. 3N), organoids were exposed to CCK and the pancreatic secretory function was analyzed with an amylase Enzyme-linked immune sorbent assay (ELISA). […]

“Also recorded” adds a separate entry of the source.

As to `CC1(C)CC=C(C#Cc2ccccc2)c2cc(/C=C/c3ccc(C(=O)O)cc3)ccc21` [BMS493], the “PROX1 expressing cells (GFP area)” value in test [1] is “significant inhibition”. In the test on bAP organoids, the “gene expression of HHEX” value is listed as “strongly suppressed” and the “gene expression of PDX1” value was “strongly suppressed”. For the same compound, the “protein-level induction of HHEX and PDX1 at boundary” value in the test with posterior gut spheroid is listed as “suppressed; also recorded: inhibited”.

For the compound cholecystokinin [CCK], the “amylase secretion in supernatants (ELISA)” value in test [2] (CCK treated vs untreated controls, 3 days-CCK, FIG. 3P) was “increased”. The “ductal structures response to CCK” value in test [2] (on the following day, FIG. 3O) is “constricted”.
